The term IC50 denotes the concentration that inhibits the measured activity by half. A lower IC50 goes with inhibition by little substance.

This passage reports IC50 results from ChEMBL document CHEMBL1136506, “Solid-phase synthesis of cyclic RGD-furanoid sugar amino acid peptides as integrin inhibitors” (Bioorg Med Chem Lett, 2003).

Structures are written as SMILES. Numbered stars: 1 amine (or outer) side, 2 acyl side, 3 side chain; on linkers, the order of the positions; unused ones are H or OH. Square brackets hold non-standard residues; d marks the D form. Peptide text beside a SMILES is read from it. X1 = O=C(C[C@@H]1O[C@H](CN[*:1])[C@@H](O)[C@H]1O)[*:2]

Assay [1] concerns the target T1, Integrin alpha-V/beta-3 (Homo sapiens, UniProt P05106+P06756). Put plainly: Displacement of [125I]echistatin from alphaV-beta3 integrin of human skin fibroblasts. It counts as protein-complex assay. Background: Displacement assays read how much labelled ligand stays bound in the presence of the test substance.
For assay [2], the target named is T2, Integrin alpha-IIb/beta-3 (Homo sapiens, UniProt P05106+P08514). The assay is described as follows: Displacement of [125I]echistatin from alphaIIb-beta3 integrin of human platelets.
T2 sequence (P05106 27-788 limits assumed): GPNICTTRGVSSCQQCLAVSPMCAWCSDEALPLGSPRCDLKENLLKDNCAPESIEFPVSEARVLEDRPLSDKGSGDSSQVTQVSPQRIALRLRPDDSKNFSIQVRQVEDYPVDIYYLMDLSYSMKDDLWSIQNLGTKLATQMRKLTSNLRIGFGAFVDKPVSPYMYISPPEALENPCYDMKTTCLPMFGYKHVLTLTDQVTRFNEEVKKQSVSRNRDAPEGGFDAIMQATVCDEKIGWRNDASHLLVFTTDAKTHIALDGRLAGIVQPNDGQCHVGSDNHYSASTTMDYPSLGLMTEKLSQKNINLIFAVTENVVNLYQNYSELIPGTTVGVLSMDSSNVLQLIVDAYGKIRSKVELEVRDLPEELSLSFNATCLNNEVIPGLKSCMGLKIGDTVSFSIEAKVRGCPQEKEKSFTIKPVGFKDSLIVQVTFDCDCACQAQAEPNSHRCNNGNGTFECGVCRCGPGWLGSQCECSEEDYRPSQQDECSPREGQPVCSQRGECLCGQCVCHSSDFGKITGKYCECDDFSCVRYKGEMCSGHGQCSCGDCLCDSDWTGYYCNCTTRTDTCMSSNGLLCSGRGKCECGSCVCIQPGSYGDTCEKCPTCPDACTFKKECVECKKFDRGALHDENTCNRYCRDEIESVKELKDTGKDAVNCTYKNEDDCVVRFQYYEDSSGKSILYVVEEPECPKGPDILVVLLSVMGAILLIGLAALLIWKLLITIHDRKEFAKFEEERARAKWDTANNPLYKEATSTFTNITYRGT
T2 sequence (P08514 32-887 limits assumed): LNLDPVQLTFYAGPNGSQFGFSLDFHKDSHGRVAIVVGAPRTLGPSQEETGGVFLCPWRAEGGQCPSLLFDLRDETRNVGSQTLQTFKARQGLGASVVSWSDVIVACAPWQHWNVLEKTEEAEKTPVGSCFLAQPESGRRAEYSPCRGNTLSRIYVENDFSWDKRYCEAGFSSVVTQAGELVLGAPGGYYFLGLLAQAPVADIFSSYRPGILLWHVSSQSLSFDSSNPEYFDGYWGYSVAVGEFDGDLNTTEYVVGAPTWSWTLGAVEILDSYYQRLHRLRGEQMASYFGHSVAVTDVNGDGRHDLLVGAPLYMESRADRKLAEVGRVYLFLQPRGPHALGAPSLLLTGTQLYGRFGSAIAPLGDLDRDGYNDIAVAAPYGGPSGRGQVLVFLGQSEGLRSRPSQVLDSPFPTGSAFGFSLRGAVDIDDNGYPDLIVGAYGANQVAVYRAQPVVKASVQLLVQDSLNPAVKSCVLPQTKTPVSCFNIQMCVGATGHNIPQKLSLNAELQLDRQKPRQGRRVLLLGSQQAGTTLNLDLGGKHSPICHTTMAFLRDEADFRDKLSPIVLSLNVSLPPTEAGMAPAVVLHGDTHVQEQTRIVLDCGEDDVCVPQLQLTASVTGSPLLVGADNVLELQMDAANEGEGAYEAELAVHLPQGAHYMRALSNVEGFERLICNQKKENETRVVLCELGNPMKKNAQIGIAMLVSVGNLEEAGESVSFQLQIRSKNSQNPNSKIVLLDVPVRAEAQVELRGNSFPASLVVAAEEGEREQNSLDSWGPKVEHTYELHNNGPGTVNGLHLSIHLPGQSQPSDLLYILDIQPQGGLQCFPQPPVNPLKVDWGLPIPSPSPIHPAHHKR
T2 sequence (P08514 891-1039 limits assumed): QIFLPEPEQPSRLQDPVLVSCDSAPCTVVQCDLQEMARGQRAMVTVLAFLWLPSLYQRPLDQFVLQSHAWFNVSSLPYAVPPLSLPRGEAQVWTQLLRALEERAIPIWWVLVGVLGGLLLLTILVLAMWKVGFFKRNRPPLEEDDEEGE
The target in assay [3] is T1, Integrin alpha-V/beta-3. The assay is described as follows: Displacement of [125I]-echistatin from alphaV-beta3 integrin of human skin fibroblasts at 1 mM (Inactive). Format: protein-complex assay.
Assay [4] concerns the target T2, Integrin alpha-IIb/beta-3. The assay is described as follows: Displacement of [125I]echistatin from alphaIIb-beta3 integrin of human platelets at 1 mM (Inactive).

T1 sequence (P05106 27-788 limits assumed): as the sequence (P05106 27-788 limits assumed) above
T1 sequence (P06756 31-889 limits assumed): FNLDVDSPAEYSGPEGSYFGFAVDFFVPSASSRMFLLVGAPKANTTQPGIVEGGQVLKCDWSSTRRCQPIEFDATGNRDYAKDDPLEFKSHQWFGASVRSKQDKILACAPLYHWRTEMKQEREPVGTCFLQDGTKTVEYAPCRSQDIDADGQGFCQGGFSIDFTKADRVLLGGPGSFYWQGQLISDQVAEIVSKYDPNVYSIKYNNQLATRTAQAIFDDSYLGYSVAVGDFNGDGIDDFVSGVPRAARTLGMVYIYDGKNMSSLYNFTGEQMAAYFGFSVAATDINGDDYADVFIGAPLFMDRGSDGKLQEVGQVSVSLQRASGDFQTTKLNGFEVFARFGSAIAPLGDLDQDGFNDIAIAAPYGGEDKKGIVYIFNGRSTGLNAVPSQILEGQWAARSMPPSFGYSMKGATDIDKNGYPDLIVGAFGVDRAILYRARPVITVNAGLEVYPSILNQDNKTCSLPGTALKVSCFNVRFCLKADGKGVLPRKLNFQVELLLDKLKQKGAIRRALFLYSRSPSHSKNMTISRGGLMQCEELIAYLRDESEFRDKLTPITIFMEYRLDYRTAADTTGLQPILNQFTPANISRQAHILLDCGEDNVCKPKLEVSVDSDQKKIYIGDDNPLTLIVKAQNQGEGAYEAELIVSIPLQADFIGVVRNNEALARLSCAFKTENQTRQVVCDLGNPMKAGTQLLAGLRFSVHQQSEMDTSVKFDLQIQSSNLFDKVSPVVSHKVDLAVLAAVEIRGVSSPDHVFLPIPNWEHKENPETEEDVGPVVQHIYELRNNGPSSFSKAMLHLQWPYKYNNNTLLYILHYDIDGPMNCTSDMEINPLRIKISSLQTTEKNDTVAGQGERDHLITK
T1 sequence (P06756 891-1048 limits assumed): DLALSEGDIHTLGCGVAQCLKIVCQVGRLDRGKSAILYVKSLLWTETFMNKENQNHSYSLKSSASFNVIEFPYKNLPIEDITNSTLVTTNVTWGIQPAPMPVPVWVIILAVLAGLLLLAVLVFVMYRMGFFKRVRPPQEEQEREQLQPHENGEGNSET

`N=C(N)NCCCC1NC(=O)C[C@@H]2O[C@H](CNC(=O)C[C@@H]3O[C@H](CNC(=O)C(CC(=O)O)NC(=O)CNC1=O)[C@@H](O)[C@H]3O)[C@@H](O)[C@H]2O` (stereo not given in full): the IC50 at Integrin alpha-V/beta-3 [1] was determined as 597 µM; in assay [2], 198 µM.
Take `N=C(N)NCCC[C@@H]1NC(=O)C[C@@H]2O[C@H](CNC(=O)[C@H](CC(=O)O)NC(=O)CNC1=O)[C@@H](O)[C@H]2O`: the IC50 on Integrin alpha-V/beta-3 [1] was determined as 1.49 µM; in assay [2], 0.384 µM.
For the compound `N=C(N)NCCCC1NC(=O)C[C@@H]2O[C@H](CNC(=O)C(CC(=O)O)NC(=O)C[C@@H]3O[C@H](CNC1=O)[C@@H](O)[C@H]3O)[C@@H](O)[C@H]2O` (stereo not given in full), the half-maximal inhibitory concentration (IC50) result (on Integrin alpha-V/beta-3 [3]; in assay [4]) was “Not Active” throughout.
In the case of `CC(C)[C@@H]1NC(=O)CNC(=O)C[C@@H]2O[C@H](CNC(=O)[C@H](CCCN=C(N)N)NC(=O)[C@H](CC(=O)O)NC1=O)[C@@H](O)[C@H]2O` (cyclo(DR[X1]GV)), the IC50 result (on Integrin alpha-V/beta-3 [3]; in assay [4]) was “Not Active” throughout.
As for `CC(C)[C@@H]1NC(=O)[C@H](CC(=O)O)NC(=O)CNC(=O)[C@H](CCCN=C(N)N)NC(=O)C[C@@H]2O[C@H](CNC1=O)[C@@H](O)[C@H]2O` (cyclo(RGDV[X1])), the IC50 at Integrin alpha-V/beta-3 [1] came to 98.1 µM; in assay [2], 32.2 µM.
